Experimental data: ChEMBL document CHEMBL1909046, “DrugMatrix in vitro pharmacology data”

Key:
[1] = target: Glycine receptor (Rattus norvegicus, UniProt P22771+P24524+P07727+P20781); format: cell membranes, Wistar, Spinal cord, Membrane; further: in other assays of this panel Not Active means under 50% inhibition at 10 µM
[2] = DRUGMATRIX: GABAA, Muscimol, Central radioligand binding (ligand: [3H] Muscimol); format: cell membranes, Rattus norvegicus, Wistar, Brain, Membrane; conditions: Not Active = under 50% inhibition at 10 µM
[3] = target: 5-hydroxytryptamine receptor 4 (Cavia porcellus, UniProt O70528); format: cell membranes, Dunkin-Hartley, Striatum, Membrane; further: in other assays of this panel Not Active means under 50% inhibition at 10 µM
5-hydroxytryptamine receptor 4, sequence (O70528 whole entry): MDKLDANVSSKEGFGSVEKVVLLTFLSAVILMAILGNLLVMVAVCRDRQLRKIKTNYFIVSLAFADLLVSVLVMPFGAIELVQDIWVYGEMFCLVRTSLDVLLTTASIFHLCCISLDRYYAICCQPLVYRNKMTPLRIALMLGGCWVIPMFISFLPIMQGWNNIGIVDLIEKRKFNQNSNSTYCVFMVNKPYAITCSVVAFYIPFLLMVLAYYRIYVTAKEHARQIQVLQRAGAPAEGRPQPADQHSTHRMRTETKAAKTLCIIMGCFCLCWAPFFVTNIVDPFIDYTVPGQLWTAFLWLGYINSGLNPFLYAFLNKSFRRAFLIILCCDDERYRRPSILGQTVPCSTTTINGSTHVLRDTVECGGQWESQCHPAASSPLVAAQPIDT

[4] = DRUGMATRIX: Platelet-Derived Growth Factor (PDGF) radioligand binding (ligand: [125I] PDGF); format: cell-based; conditions: nih3t3; Not Active = under 50% inhibition at 10 µM
[5] = DRUGMATRIX: Sigma2 radioligand binding (ligand: [3H] Ifenprodil); format: cell membranes, Rattus norvegicus, Wistar, Brain, Membrane; conditions: Not Active = under 50% inhibition at 10 µM
[6] = target: Estrogen receptor beta (Homo sapiens, UniProt Q92731); conditions: sf9; further: in other assays of this panel Not Active means under 50% inhibition at 10 µM
Estrogen receptor beta, sequence (Q92731 whole entry): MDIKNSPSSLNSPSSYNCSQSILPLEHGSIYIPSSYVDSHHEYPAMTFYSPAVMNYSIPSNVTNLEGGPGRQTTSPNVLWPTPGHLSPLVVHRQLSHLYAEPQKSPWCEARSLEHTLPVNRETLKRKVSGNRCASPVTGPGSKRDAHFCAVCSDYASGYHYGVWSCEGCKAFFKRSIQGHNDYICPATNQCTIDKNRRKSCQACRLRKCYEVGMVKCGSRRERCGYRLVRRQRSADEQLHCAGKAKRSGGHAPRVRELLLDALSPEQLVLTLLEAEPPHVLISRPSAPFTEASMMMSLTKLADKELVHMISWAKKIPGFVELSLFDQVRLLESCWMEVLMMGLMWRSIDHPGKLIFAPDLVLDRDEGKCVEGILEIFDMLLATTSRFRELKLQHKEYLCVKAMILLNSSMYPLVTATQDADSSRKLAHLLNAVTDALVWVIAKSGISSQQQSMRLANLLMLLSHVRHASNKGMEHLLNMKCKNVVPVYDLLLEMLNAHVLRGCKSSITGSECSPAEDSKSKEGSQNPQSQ

[7] = target: Melanocortin receptor 3 (Homo sapiens, UniProt P41968); format: cell membranes, Membrane; conditions: hek293; further: in other assays of this panel Not Active means under 50% inhibition at 10 µM
Melanocortin receptor 3, sequence (P41968 whole entry): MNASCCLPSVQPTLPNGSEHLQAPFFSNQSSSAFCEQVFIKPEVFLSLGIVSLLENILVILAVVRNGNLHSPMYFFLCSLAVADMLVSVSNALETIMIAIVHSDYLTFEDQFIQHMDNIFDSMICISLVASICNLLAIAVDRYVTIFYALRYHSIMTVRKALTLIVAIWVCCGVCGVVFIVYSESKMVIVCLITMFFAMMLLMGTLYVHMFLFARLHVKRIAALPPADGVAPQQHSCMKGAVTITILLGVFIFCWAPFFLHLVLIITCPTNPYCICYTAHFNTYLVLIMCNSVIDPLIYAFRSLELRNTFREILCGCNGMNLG

[8] = DRUGMATRIX: Glutamate, NMDA, Agonism radioligand binding (ligand: [3H] CGP-39653); format: cell membranes, Rattus norvegicus, Wistar, Cerebral cortex, Membrane; conditions: Not Active = under 50% inhibition at 10 µM

Nn1nnc2ccccc21
Not Active: IC50 [1] | IC50 [2] | Ki [2] | IC50 [3] | IC50 [4] | Ki [4] | IC50 [5] | Ki [5] | IC50 [6] | IC50 [7] | IC50 [8] | Ki [8]
